Results as given in article PMC11852920, “The Diacylglycerol Acyltransferase 3 of Chlamydomonas reinhardtii Is a Disordered Protein Capable of Binding to Lipids Derived from Chloroplasts” (Biomolecules, 2025).

Biological target: T1, DGAT3 (Chlamydomonas reinhardtii, UniProt A8IMA8)
T1 construct: gene CHLRE_06g310200v5; Trp216, Trp218, Tyr294 (only Trp/Tyr residues); 18 Asp, 22 Glu, 6 Phe, 9 His; chloroplast protein
T1 sequence (A8IMA8 2-346): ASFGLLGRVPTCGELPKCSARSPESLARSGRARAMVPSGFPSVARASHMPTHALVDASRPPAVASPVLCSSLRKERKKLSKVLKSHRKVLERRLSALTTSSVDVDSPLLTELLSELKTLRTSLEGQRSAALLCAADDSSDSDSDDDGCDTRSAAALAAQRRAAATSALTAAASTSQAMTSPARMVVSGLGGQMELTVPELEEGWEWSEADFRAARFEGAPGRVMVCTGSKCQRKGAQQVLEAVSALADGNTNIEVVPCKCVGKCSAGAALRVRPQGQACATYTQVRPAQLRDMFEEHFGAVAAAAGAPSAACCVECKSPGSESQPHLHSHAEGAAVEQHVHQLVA
Assay: steady-state intrinsic Trp fluorescence anisotropy titration with lipid vesicles
Assay type: binding
Conditions: partition coefficient (protein between water and lipid phase), not a Kd; anionic POPG vesicles (bilayer, not monomeric lipid); 5 uM protein, 50 mM Tris, 100 mM NaCl, 5 mM TCEP, pH 8; 25 °C

CCCCCCCC/C=C\CCCCCCCC(=O)O[C@H](COC(=O)CCCCCCCCCCCCCCC)COP(=O)(O)OCC(O)CO (mixture of isomers) [POPG, 1-palmitoyl-2-oleoyl-sn-glycero-3-phospho-(1′-rac-glycerol)]
Kp: ~ 40,000
